This note sets out measurements from paper PMC11672551, “Cyclic Ruthenium-Peptide Prodrugs Penetrate the Blood–Brain Barrier and Attack Glioblastoma upon Light Activation in Orthotopic Zebrafish Tumor Models” (ACS Central Science, 2024).

For data set [1], the system named is U87MG-wt and U87MG-kd (ITGAV, integrin αV knockdown) cells. The data set is described as follows: Cellular ruthenium uptake by ICP-MS in wild type vs ITGAV knockdown cells. The data set is classed as cell-based, human. The settings on record: normoxia, 10 μM, 3 h, 2D monolayers, n = 3. The method, then: Figure 2 Integrin targeting by Ru-p(HH), Ru-p(MH), and Ru-p(MM)in vitro. (a, b) Expression of integrin (a) αVβ3 and (b) αVβ5 in MCF7, PC-3, A549, MDA-MB-231, U87MG, and U87MG-kd cell lines under normoxic (21% O2) or hypoxic (1% O2) conditions. Note a: ITGAV was knockdown; see Methods. Bars represent the fluorescence intensity of the cells incubated with either anti-integrin αVβ3 or αVβ5 monoclonal antibodies followed by a secondary antibody conjugated to Alexa-Fluor 488. Error: standard deviation (SD), n = 2. (c) Ruthenium accumulation (μg Ru/million cells) of wild type U87MG (U87MG-wt) and ITGAV knockdown U87MG (U87MG-kd) cell lines after treatment with medium (control), Ru-p(HH), Ru-p(MH), Ru-p(MM), or [Ru(Ph2phen)2(bpy)]Cl2 (normoxia, 10 μM, 3 h). Error: standard deviation (SD), n = 3. Two-way ANOVA was used to determine the significance of the comparisons of data (*P < 0.05, **P < 0.01, ***P < 0.001, ****P < 0.0001).
In order to check whether the integrins […] were responsible for the cellular uptake of these conjugates, an ITGAV (integrin αV) knockdown U87MG cell line (U87MG-kd, Figure 2a,b) was prepared, and the cellular ruthenium uptake was measured using ICP-MS in wild type and knockdown U87MG 2D cell monolayers (Figure 2c). […]

For data set [2], the system named is U87MG cells. The data set can be described thus: 2D cytotoxicity assay, SRB end point, dark vs green light. Type of data set: cell-based, human. The settings on record: normoxia (21% O2); for EC50: SRB at 96 h. How it is done:
To test the in vitro phototoxicity of the three complexes toward 2D monolayer U87MG cells, a cell viability assay was undertaken as follows: the cells were seeded at t = 0, treated at t = 24 h, irradiated with green light (520 nm, 13.1 J cm^–2) at t = 48 h without refreshing the medium (drug-to-light interval = 24 h), further incubated in the dark for 48 h, and counted at t = 96 h with a sulforhodamine B (SRB) cell quantification end point assay.[45] Half-maximal effective concentrations (EC50 in μM), compared to untreated control, and photoindex (PI) values, defined as EC50,dark/ EC50,light, were calculated to characterize the toxicity and light activation of each Ru-peptide conjugate. […] However, a much stronger discrepancy appeared in the 2D toxicity data in hypoxic conditions (Table 2, Figure S22b). The phototherapeutic properties of Ru-p(HH) in the green light group were the poorest, leading to a PI of only 1.3. […] Ru-p(MH) stood somewhere between these values with a PI of 1.9 under hypoxia. […] The loss of activity of Ru-p(HH) under hypoxia is consistent with the hypothesis of a PDT pathway, while Ru-p(MM) keeping appreciable phototoxicity under hypoxia better fits the hypothesis of a PACT cell-killing mechanism.
U87MG cells (6000) were seeded in 96-well plates (Sarstedt, 83.3924), and each well contained 100 μL of Opti-MEM (Gibco complete medium 11058-021, supplemented with 2.5% v/v fetal calf serum (FCS), 0.2% v/v penicillin/streptomycin (P/S), and 1% v/v glutamine). They were then placed either in a normoxic (21% O2) or hypoxic (1.0% O2) incubator; 24 h later, different concentrations of Ru-p(HH), Ru-p(MH), or Ru-p(MM) dissolved in Opti-MEM (100 μL) were added to the wells in triplicate. For each complex, one dark and one light plate were involved. Each plate was further incubated in the dark for 24 h (DLI). After that, one plate was irradiated with green light (520 nm) for 20 min at 37 °C for normoxia (dose = 13.1 J cm^–2) or 30 min for hypoxia (dose = 13.0 J cm^–2), while the other plate was kept in the dark. The cells were further incubated for another 2 days in normoxic or hypoxic conditions, respectively. Finally, 100 μL of cold trichloroacetic acid (10% w/v) was added to each well to fix the cells, and all plates were then transferred to a 4 °C refrigerator for 48 h before an SRB cell quantification end point assay was performed.[45] All experiments were conducted in biologically independent triplicate.
Hypoxic cell models in vitro: all cells were incubated and passaged in a dark hypoxic incubator (1% O2) for at least 2 weeks before all hypoxia studies. Adding chemicals to the cells had to be performed in air; however, the cell-growing medium was kept in the hypoxia incubator for at least 2 days before the addition to hypoxic cells, and all hypoxic light irradiations were performed inside the hypoxic incubator set at 1.0% O2.

Read-outs that look alike come from different tables or passages of the source.

On to [Ru(Ph2phen)2(bpy)]Cl2, for which the “cellular ruthenium uptake in U87MG-kd compared to wild type U87MG” value in data set [1] is given as “not lowered”. Besides, the “PI, photoindex EC50,dark/EC50,light” value in data set [2] was 74.4. For the same substance, the EC50 came to 0.18 µM in data set [2] (520 nm, 10.9 mW cm–2, 13.1 J cm–2, 20 min, DLI 24 h, n = 3, read-out: EC50, green light) and 13.4 µM in data set [2] (light dose 0, 24 h treatment, no wash, n = 3, read-out: EC50, dark).

The term EC50 denotes the concentration needed to bring the measured effect to its halfway point.
